Measurements as given in a compilation of properties of binary mixtures (doi:10.5772/14848).

Assay: xn = mol fraction of the nth substance listed
Conditions: 101 kPa

CCC[N+]1(C)CCCC1.O=S(=O)([N-]S(=O)(=O)C(F)(F)F)C(F)(F)F + O=C1CCCO1
electrical conductivity [S/m]
Conditions | 278.15 K | 288.15 K | 298.15 K | 308.15 K | 318.15 K | 328.15 K | 338.15 K | 348.15 K | 358.15 K
x1 = 0.0657 | 0.831 | 0.987 | 1.14 | 1.3 | 1.46 | – | 1.8 | 1.96 | –
x1 = 0.1741 | 0.965 | 1.18 | 1.39 | – | 1.86 | 2.12 | 2.35 | – | 2.82
x1 = 0.3874 | – | 0.765 | 0.979 | 1.22 | 1.47 | 1.74 | 2 | – | 2.56
